Source: the supplement of paper PMC8612539
Values after ≈ are worked out from the molar mass of the structure shown.

Tests used:
Enterococcus spp. = experiment: minimum inhibitory concentration (MIC)
Experimental: (§1)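 Broth microdilution MIC (Sensititre BOPO7F bovine plate, CLSI methods) of 19 antimicrobials against field isolates of P. multocida, M. haemolytica, H. somni (deep nasopharyngeal swabs) and E. coli, Enterococcus spp. (rectal swabs) from weaned dairy heifers. Incubation 16-24 h at 35 C. MIC is the lowest concentration preventing visible growth. Values with <= or > lie at the tested range limits. Trimethoprim-sulfamethoxazole is given as the trimethoprim component of a 1:19 mixture.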

Mannheimia haemolytica = experiment: minimum inhibitory concentration (MIC)
Experimental: as §1

CN[C@@H]1[C@H](O)[C@H](NC)[C@H]2O[C@@]3(O)C(=O)C[C@@H](C)O[C@H]3O[C@@H]2[C@H]1O [Spectinomycin]
minimum inhibitory concentration [µg/mL]
Settings | Enterococcus spp. | Mannheimia haemolytica
isolate (source animal id): 2 | 64 (≈ 193 µM) | –
isolate (source animal id): 8 | – | 32 (≈ 96.3 µM)
isolate (source animal id): 13 | – | 32 (≈ 96.3 µM)
isolate (source animal id): 18 | – | 32 (≈ 96.3 µM)
isolate (source animal id): 21 | – | 32 (≈ 96.3 µM)
isolate (source animal id): 25 | – | 32 (≈ 96.3 µM)
isolate (source animal id): 27 | – | 32 (≈ 96.3 µM)
isolate (source animal id): 28 | – | > 64
isolate (source animal id): 30 | – | 32 (≈ 96.3 µM)
isolate (source animal id): 31 | – | > 64
isolate (source animal id): 32 | – | 32 (≈ 96.3 µM)
isolate (source animal id): 34 | – | 32 (≈ 96.3 µM)
isolate (source animal id): 35 | > 64 | –
isolate (source animal id): 36 | – | 32 (≈ 96.3 µM)
isolate (source animal id): 37 | – | 32 (≈ 96.3 µM)
isolate (source animal id): 40 | – | 32 (≈ 96.3 µM)
isolate (source animal id): 41 | – | 32 (≈ 96.3 µM)
isolate (source animal id): 42 | 64 (≈ 193 µM) | –
isolate (source animal id): 43 | – | 32 (≈ 96.3 µM)
isolate (source animal id): 44 | 64 (≈ 193 µM) | –
isolate (source animal id): 46 | – | 32 (≈ 96.3 µM)
isolate (source animal id): 49 | – | 32 (≈ 96.3 µM)
isolate (source animal id): 50 | – | 32 (≈ 96.3 µM)
isolate (source animal id): 51 | – | 32 (≈ 96.3 µM)
isolate (source animal id): 52 | – | 32 (≈ 96.3 µM)
isolate (source animal id): 53 | – | 32 (≈ 96.3 µM)
isolate (source animal id): 55 | – | 32 (≈ 96.3 µM)
isolate (source animal id): 56 | – | 32 (≈ 96.3 µM)
isolate (source animal id): 57 | – | > 64
isolate (source animal id): 79 | 64 (≈ 193 µM) | –
isolate (source animal id): 88 | 32 (≈ 96.3 µM) | –
isolate (source animal id): 91 | 32 (≈ 96.3 µM) | –
isolate (source animal id): 92 | 16 (≈ 48.1 µM) | –
isolate (source animal id): 100 | – | > 64
isolate (source animal id): 103 | – | 32 (≈ 96.3 µM)
isolate (source animal id): 107 | – | 32 (≈ 96.3 µM)
isolate (source animal id): 108 | – | > 64
isolate (source animal id): 111 | 32 (≈ 96.3 µM) | –
isolate (source animal id): 112 | – | 32 (≈ 96.3 µM)
isolate (source animal id): 113 | – | > 64
isolate (source animal id): 121 | – | 32 (≈ 96.3 µM)
isolate (source animal id): 122 | > 64 | 32 (≈ 96.3 µM)
isolate (source animal id): 123 | 64 (≈ 193 µM) | > 64
isolate (source animal id): 126 | – | 32 (≈ 96.3 µM)
isolate (source animal id): 133 | 64 (≈ 193 µM) | 32 (≈ 96.3 µM)
isolate (source animal id): 135 | – | > 64
isolate (source animal id): 138 | – | 32 (≈ 96.3 µM)
isolate (source animal id): 141 | – | > 64
isolate (source animal id): 142 | – | 32 (≈ 96.3 µM)
isolate (source animal id): 145 | – | 16 (≈ 48.1 µM)
isolate (source animal id): 149 | – | 32 (≈ 96.3 µM)
isolate (source animal id): 151 | – | 32 (≈ 96.3 µM)
isolate (source animal id): 152 | – | 16 (≈ 48.1 µM)
isolate (source animal id): 154 | – | 32 (≈ 96.3 µM)
isolate (source animal id): 158 | 64 (≈ 193 µM) | –
isolate (source animal id): 159 | – | 16 (≈ 48.1 µM)
isolate (source animal id): 162 | – | 16 (≈ 48.1 µM)
isolate (source animal id): 168 | 64 (≈ 193 µM) | –
isolate (source animal id): 169 | 64 (≈ 193 µM) | –
isolate (source animal id): 170 | – | 32 (≈ 96.3 µM)
isolate (source animal id): 171 | 64 (≈ 193 µM) | 32 (≈ 96.3 µM)
isolate (source animal id): 172 | – | 32 (≈ 96.3 µM)
isolate (source animal id): 173 | – | 32 (≈ 96.3 µM)
isolate (source animal id): 175 | 64 (≈ 193 µM) | –
isolate (source animal id): 177 | 64 (≈ 193 µM) | –
isolate (source animal id): 179 | – | 32 (≈ 96.3 µM)
isolate (source animal id): 180 | – | 32 (≈ 96.3 µM)
isolate (source animal id): 181 | 64 (≈ 193 µM) | –
isolate (source animal id): 182 | 64 (≈ 193 µM) | –
isolate (source animal id): 183 | 64 (≈ 193 µM) | 32 (≈ 96.3 µM)
isolate (source animal id): 186 | – | 32 (≈ 96.3 µM)
isolate (source animal id): 187 | 64 (≈ 193 µM) | 32 (≈ 96.3 µM)
isolate (source animal id): 188 | – | 32 (≈ 96.3 µM)
isolate (source animal id): 190 | 64 (≈ 193 µM) | 32 (≈ 96.3 µM)
isolate (source animal id): 191 | – | 32 (≈ 96.3 µM)
isolate (source animal id): 192 | – | 32 (≈ 96.3 µM)
isolate (source animal id): 194 | 64 (≈ 193 µM) | –
isolate (source animal id): 195 | 64 (≈ 193 µM) | –
isolate (source animal id): 197 | 64 (≈ 193 µM) | –
isolate (source animal id): 201 | – | 32 (≈ 96.3 µM)
isolate (source animal id): 202 | – | 32 (≈ 96.3 µM)
isolate (source animal id): 209 | – | 32 (≈ 96.3 µM)
isolate (source animal id): 211 | 64 (≈ 193 µM) | 32 (≈ 96.3 µM)
isolate (source animal id): 214 | 64 (≈ 193 µM) | –
isolate (source animal id): 220 | – | 32 (≈ 96.3 µM)
isolate (source animal id): 221 | – | 32 (≈ 96.3 µM)
isolate (source animal id): 222 | 64 (≈ 193 µM) | –
isolate (source animal id): 223 | 64 (≈ 193 µM) | ≤ 8
isolate (source animal id): 228 | 64 (≈ 193 µM) | –
isolate (source animal id): 230 | 64 (≈ 193 µM) | –
isolate (source animal id): 233 | – | 32 (≈ 96.3 µM)
isolate (source animal id): 235 | 64 (≈ 193 µM) | –
isolate (source animal id): 236 | 64 (≈ 193 µM) | –
isolate (source animal id): 237 | – | 32 (≈ 96.3 µM)
isolate (source animal id): 239 | 64 (≈ 193 µM) | –
isolate (source animal id): 241 | 64 (≈ 193 µM) | 32 (≈ 96.3 µM)
isolate (source animal id): 244 | 64 (≈ 193 µM) | –
isolate (source animal id): 246 | 64 (≈ 193 µM) | –
isolate (source animal id): 247 | 64 (≈ 193 µM) | –
isolate (source animal id): 250 | 64 (≈ 193 µM) | –
isolate (source animal id): 252 | 64 (≈ 193 µM) | 32 (≈ 96.3 µM)
isolate (source animal id): 253 | – | > 64
isolate (source animal id): 259 | – | 32 (≈ 96.3 µM)
isolate (source animal id): 260 | – | > 64
isolate (source animal id): 262 | – | 32 (≈ 96.3 µM)
isolate (source animal id): 268 | 32 (≈ 96.3 µM) | –
isolate (source animal id): 282 | 16 (≈ 48.1 µM) | 32 (≈ 96.3 µM)
isolate (source animal id): 285 | > 64 | –
isolate (source animal id): 287 | – | 32 (≈ 96.3 µM)
isolate (source animal id): 288 | – | 32 (≈ 96.3 µM)
isolate (source animal id): 289 | 64 (≈ 193 µM) | –
isolate (source animal id): 290 | 64 (≈ 193 µM) | –
isolate (source animal id): 291 | – | 32 (≈ 96.3 µM)
isolate (source animal id): 293 | – | 16 (≈ 48.1 µM)
isolate (source animal id): 296 | 64 (≈ 193 µM) | –
isolate (source animal id): 298 | 64 (≈ 193 µM) | 16 (≈ 48.1 µM)
isolate (source animal id): 299 | – | 32 (≈ 96.3 µM)
isolate (source animal id): 300 | – | 32 (≈ 96.3 µM)
isolate (source animal id): 301 | 32 (≈ 96.3 µM) | –
isolate (source animal id): 302 | – | 32 (≈ 96.3 µM)
isolate (source animal id): 304 | – | 32 (≈ 96.3 µM)
isolate (source animal id): 306 | – | 32 (≈ 96.3 µM)
isolate (source animal id): 308 | – | 32 (≈ 96.3 µM)
isolate (source animal id): 309 | – | 32 (≈ 96.3 µM)
isolate (source animal id): 310 | 64 (≈ 193 µM) | –
isolate (source animal id): 313 | – | 16 (≈ 48.1 µM)
isolate (source animal id): 318 | – | 16 (≈ 48.1 µM)
isolate (source animal id): 320 | 64 (≈ 193 µM) | 32 (≈ 96.3 µM)
isolate (source animal id): 321 | – | 16 (≈ 48.1 µM)
isolate (source animal id): 323 | – | 32 (≈ 96.3 µM)
isolate (source animal id): 324 | – | 16 (≈ 48.1 µM)
isolate (source animal id): 326 | – | 16 (≈ 48.1 µM)
isolate (source animal id): 328 | – | 16 (≈ 48.1 µM)
isolate (source animal id): 329 | – | 16 (≈ 48.1 µM)
isolate (source animal id): 331 | 64 (≈ 193 µM) | –
isolate (source animal id): 333 | 64 (≈ 193 µM) | 16 (≈ 48.1 µM)
isolate (source animal id): 335 | – | 16 (≈ 48.1 µM)
isolate (source animal id): 338 | – | 16 (≈ 48.1 µM)
isolate (source animal id): 341 | 64 (≈ 193 µM) | –
